Measured values published in ChEMBL document CHEMBL1143332, “Syntheses of tricyclic pyrones and pyridinones and protection of Abeta-peptide induced MC65 neuronal cell death” (Bioorg Med Chem Lett, 2009).
The source made the active and inactive calls. The calls are words filed in the database; no cut-off is given here.

System: not listed separately
Assay: (§1) Cell protective activity in human MC65 cells assessed as protection against amyloid beta precursor protein C99-induced neuronal cell death after 3 days by MTT assay
Format: functional, cell-based
Conditions: 72 h

Row | Structure (SMILES) | EC50 [nM]
1 | Cc1cc2c(c(=O)o1)C=C1CC[C@H]([C@@H](C)Cn3cc(C)c(=O)[nH]c3=O)C[C@@H]1O2 | 6920
2 | COc1ccc(Cn2c(C)cc3c(c2=O)C=C2CC[C@H]([C@@H](C)Cn4cnc(N)c5ncnc4-5)C[C@@H]2O3)cc1 | 350
3 | C=C(Cn1cnc(N)c2ncnc1-2)[C@H]1CCC2=Cc3c(cc(C)oc3=O)O[C@H]2C1 | 1950
4 | C=C(C)[C@H]1CCC2=Cc3c(cc(C)n(Cc4ccc(OC)cc4)c3=O)O[C@H]2C1 | 1250
5 | Cc1cc2c(c(=O)o1)C=C1CC[C@H]([C@@H](C)CSc3ncccn3)C[C@@H]1O2 | 1380
6 | Cc1cc2c(c(=O)o1)C=C1CC[C@H]([C@@H](C)Cn3cnc(N)c4ncnc3-4)C[C@@H]1O2 | 310
7 | Cc1cc2c(c(=O)o1)C=C1CC[C@H]([C@@H](C)Cn3cnc4cnc(N)nc43)C[C@@H]1O2 | 860
8 | Cc1cc2c(c(=O)o1)C=C1CC[C@H]([C@@H](C)Cn3cnc4c(N)ncnc43)C[C@@H]1O2 | 3000
9 | C=C(C)[C@@H]1CCc2cnc3cc(C)oc(=O)c3c2C1 | 2490
10 | Cc1cc2c(c(=O)o1)C=C1CC[C@H]([C@@H](C)Cn3cnc4c(Cl)ncnc43)C[C@@H]1O2 | 930
11 | Cc1cc2c(c(=O)o1)C=C1CC[C@H]([C@@H](C)COc3nccc(N)n3)C[C@@H]1O2 | 2940
12 | Cc1cc2c(c(=O)o1)C=C1CC[C@H]([C@@H](C)Cn3cc(C#N)c(N)n3)C[C@@H]1O2 | 8300

System: neuronal
Assay: as §1
Format: functional, cell-based
Conditions: not given

Row | Structure (SMILES) | Activity
13 | C=C(C)[C@H]1CCc2cc3c(=O)oc(C)cc3nc2C1 | inactive
14 | CC(=O)Nc1nc2c(ncn2C[C@H](C)[C@H]2CCC3=Cc4c(cc(C)oc4=O)O[C@H]3C2)c(=O)[nH]1 | inactive
15 | Cc1cc2c(c(=O)o1)C=C1CC[C@H]([C@@H](C)Cn3ccc(N)nc3=O)C[C@@H]1O2 | inactive
